Measurements published in patent US8507448B2, “Human CD154-binding synthetic peptide and uses thereof” (Fresenius Medical Care Deutschland G.m.b.H., priority 2007, dated 2013).
Positions of bridges follow the written chain, without caps; N, C: chain ends. Residues, ends and D or L forms follow the SMILES beside them. No end group written: not given here.

What was measured:
human platelets = assay: Platelet aggregation assay (aggregometer); type: cell-based
Experimental: Platelet aggregation was measured with an aggregometer, as the increase in light transmission compared to the control. Priming of human platelets with the anti-human CD154 antibody in combination with rhsCD154 increases platelet aggregation upon stimulation with ADP 0.5 μM.
Finally, one of the major advantages of peptide 4.10 is its lack of reactivity towards human platelets. It is know that in the past, a number of clinical trials carried out to test promising anti-CD154 monoclonal antibodies were suddenly discontinued due to dramatic prothrombotic side effects (Kelsoe G. et al, J. Clin. Invest. 2003). The hypothesis is that the anti-CD154 antibodies had triggered a cross-reaction on the surface of human platelets expressing the receptor for the Fc immunoglobulin fraction (FcR) and, after activation, the CD154 molecule. Thus, the inventors tested the effect of peptide 4.10 on platelets, by a platelet aggregation assay. Such experiments were carried out by the use of a thermostatic aggregometer, equipped with a magnetic stirrer and a real time optical density meter. Platelet aggregation was evaluated as the change in optical density versus the reference sample (blank). The experiments were carried out on platelets extracted from peripheral whole blood of healthy donors collected in tubes containing 5 U/ml heparin. In particular, the platelet enriched plasma (PRP), was obtained by whole blood centrifugation at 900 rpm for 20 minutes, while the platelet poor plasma (PPP), used as the reference sample, was obtained collecting the supernatant after another centrifugation at 3000 rpm for 10 minutes. […] Similar results were obtained inducing platelet aggregation with 0.3 U/ml thrombin.

[1] = target: T1, human CD154 expressed on the surface of J558L cells (Homo sapiens, UniProt P29965); assay: Binding of -His6-tagged peptides to J558L CD154+ cells by flow cytometry; settings: -His6 peptides 60 μM, 30 minutes at room temperature
T1 construct: expressed in transfected cells; host or cells: J558L murine myeloma cell line transfected with human CD154
T1 sequence (P29965 1-261): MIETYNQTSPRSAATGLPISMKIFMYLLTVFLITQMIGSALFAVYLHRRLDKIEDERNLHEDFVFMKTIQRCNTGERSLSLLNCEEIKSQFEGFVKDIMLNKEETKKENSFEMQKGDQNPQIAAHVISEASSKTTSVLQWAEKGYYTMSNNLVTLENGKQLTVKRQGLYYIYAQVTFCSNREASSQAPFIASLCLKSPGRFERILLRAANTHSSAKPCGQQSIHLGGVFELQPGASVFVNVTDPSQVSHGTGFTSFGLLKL
Experimental: FIG. 2 represents the binding of the seven peptides obtained from the human CD154-binding clones and tagged with a 6 histidines tail (-His6) to the J558L CD154^+ cells. […] The cells were incubated with each of the -His6-tagged peptides and then with a phycoerythrin-conjugated secondary antibody specific for the -His6 tail. The dotted histogram is the isotopic control, whilst the black line is the binding intensity of the CD154-specific peptides [4.2=4.3=CPSGHTKAC (SEQ ID NO: 1), 4.4=CGTHSSRIC (SEQ ID NO: 2), 4.6=CLGTQNKEC (SEQ ID NO: 3), 4.7=4.12=CTPGKPHSC (SEQ ID NO: 4), 4.8=CKAASANIC (SEQ ID NO: 5), 4.10=CLPTRHMAC (SEQ ID NO: 6) and 4.11=CLSAVHNMC (SEQ ID NO: 7)]. For each experimental condition, 10,000 events were analyzed and the values are the mean and standard deviation of 3 different experiments.
(§1) The peptides were synthesized and conjugated with biotin (-bio) or with a 6-histidine tail (-his6) so as to enable in vitro and in vivo localization. […] Furthermore, a competition assay between the peptides and an anti-human CD154 fluorescein-conjugated antibody (Serotec) specifically recognizing the active site of CD154 was carried out. The J558L cells were incubated with the his6-peptides for 30 minutes at room temperature and then with anti-human CD154 fluorescein-conjugated antibody for another 30 minutes at room temperature. […] In order to identify the amino acid residues of the amino acid sequence of peptide 4.10 which are essential to the binding to CD154, three different peptides were synthesized, each one carrying a point mutation, which amino acid sequences differ from that of peptide 4.10 by replacement of the amino acid residues at positions 4, 5, 6, respectively, with one alanine residue.
The mutated peptides were not capable of recognizing human CD154 expressed at the surface of J558L cells (data not shown).
Similar results were obtained with the four modified peptides 4.101, 4.102, 4.103 e 4.104 having the amino acid sequences illustrated in table II.

[2] = tested on: control J558 cells (CD154-negative); assay: Binding to control CD154-negative J558 cells by flow cytometry; parameters: species or system murine; settings: -His6 peptides
[3] = target: T2, active site of human CD154 (Homo sapiens, UniProt P29965); assay: Competition with anti-human CD154 fluorescein-conjugated antibody on J558L cells; type: binding; settings: -His6 peptides 30 minutes at room temperature, then antibody
T2 construct: expressed in transfected cells; host or cells: J558L murine myeloma cell line transfected with human CD154
T2 sequence (P29965 1-261): T1 sequence (P29965 1-261)
Experimental: The murine myeloma cells transfected with human CD154, J558L, were incubated with each of the seven anti-CD154 peptides tagged with a 6 histidines tail (-His6), and then with the anti-CD154 fluorescein-conjugated antibody. The ability of the peptides to compete with the anti-CD154 antibody for the binding to the CD154 molecule expressed on the surface of the J558L cells was evaluated by flow cytometry, as the reduction in the fluorescence intensity compared to the positive control represented by cells incubated with the anti-human CD154 fluorescein-conjugated antibody alone. […] The amino acid sequence of the control peptide differs from that of peptide 4.10 in that an arginine residue is replaced with an alanine residue at amino acid position 5.
as §1

[4] = tested on: CD40 stimulation of peripheral B cells by rhsCD154; assay: rhsCD154-induced B cell activation (CD80 and CD86 membrane expression); type: cell-based, human
Experimental: The histograms of 4A show the effect of the anti-CD154 peptides and the control peptide 4.10-ala, on the activation B cells induced by stimulation with a soluble recombinant human CD154 molecule (rhsCD154). B cells were stimulated for 48 hours with rhsCD154 in the absence and in the presence of a blocking anti-human CD154 antibody or one of the seven selected peptides. Peripheral B cell activation was evaluated by flow cytometry, as the membrane expression of the co-stimulatory molecules CD80 and CD86. […] On the contrary, the activation is prevented when rhsCD154 is used in combination with a blocking anti-human CD154 antibody or with peptide 4.10 (SEQ ID NO: 6).
B cells are known to constitutively express the CD40 molecule on the cells membrane (van Kooten C. et al, J. Leukoc. Biol. 2000). Stimulation of CD40 by CD154-expressing activated T cells, results in B cells activation, proliferation and isotype switching. The inventors employed B cells isolated from whole peripheral blood of healthy donors by gradient-Ficoll centrifugation and immunomagnetical separation (MACS systems—Milteniy). The quiescent B cells thereby obtained, were then stimulated with a soluble form of human recombinant CD154 (rhsCD154) to induce activation and expression of the co-stimulatory molecules CD80 (B7-1) and CD86 (B7-2) on the cell membrane. A drastic increase in membrane expression of CD80 and CD86 on the cell surface of peripheral B cells, after stimulation for 48 hours with rhsCD154 (100 ng/ml) was observed. […] In contrast, pre-incubation for 15 minutes at 37° C. of rhsCD154 (100 ng/ml) with peptide 4.10 (SEQ. ID NO: 6), prior to lymphocyte stimulation, blocked B cells stimulation and the related expression of CD80 and CD86. […] The results are the mean±standard deviation of five different experiments. Similar results were also obtained with B cells isolated from human spleen fragments. […] These experiments were carried out on […] naive B cells, obtained from peripheral blood by negative selection, by depletion of mature lymphocytes from the B cell pool by immunomagnetic separation (MACS Systems Milteniy).

HUVEC = assay: In vitro angiogenesis: cell cord formation of HUVECs on Matrigel; type: cell-based, human; settings: pre-incubated with rhsCD154 100 ng/ml for 15 minutes at 37° C.; 4 hours
From the text: FIGS. 7B-F show representative images of cell cord formation ability on Matrigel under the various experimental conditions mentioned above (B=unstimulated control; C=rhsCD154; D=rhsCD154+ 4.10 peptide; E=rhsCD154+ 4.10-ala peptide; F=rhsCD154+ blocking anti-CD154 antibody). Peptide 4.10 of the invention (SEQ ID NO: 6), contrary to control peptide 4.10-ala (SEQ ID NO: 8), inhibits the rhsCD154-induced ability of the endothelial cells of forming cell cords.
Furthermore, in order to evaluate the inhibitory effect, rhsCD154 (100 ng/ml) was pre-incubated for 15 minutes at 37° C. with peptide 4.10 (SEQ. ID NO: 6), or with control peptide 4.10-ala (SEQ. ID NO: 8), or with a blocking anti-human CD154 antibody. The flasks were then observed at 10× magnification for a period of 4 hours under a phase contrast inverted microscope equipped with a thermostatic chamber (at about 37° C.). The cells were photographed with a camera connected to the microscope, over the whole length of time of 4 hours at regular intervals of 15 minutes each. The migratory speed of each of the cells was calculated based on the position of the nucleus of each single cell in each single frame, using an image analysis software and, as a result, the average cell migratory speed (1 standard deviation) was calculated for each experimental condition. […] As a further confirmation of the ability of peptide 4.10 to prevent human endothelial CD40 stimulation by rhsCD154 (100 ng/ml), HUVECs (3.5×10^4) were subjected to an in vitro angiogenesis assay. HUVECs were plated on a tumor matrix (Matrigel, BD) capable of promoting the formation of super cellular organization, in a basal RPMI medium supplemented with 5% serum. Upon incubation at 37° C. under 5% CO2 for 4 hours, the cells were observed under a contrast phase inverted microscope.

[5] = peptide 250 μM with rhsCD154 100 ng/ml

| Compound | binding to J558L CD154+ cells [1] | binding to control J558 cells [2] | also measured |
| --- | --- | --- | --- |
| CSCC[C@@H]1NC(=O)[C@H](Cc2c[nH]cn2)NC(=O)[C@H](CCCNC(=N)N)NC(=O)[C@H]([C@@H](C)O)NC(=O)[C@@H]2CCCN2C(=O)[C@H](CC(C)C)NC(=O)[C@@H](N)CSSC[C@@H](C(=O)O)NC(=O)[C@H](C)NC1=O [peptide 4.10, CLPTRHMAC] (H-CLPTRHMAC-OH; disulfide 1-9) |  |  | platelet aggregation induced by ADP 0.5 μM after priming (human platelets; priming 10 minutes at 37° C., peptide 60 μM with CD154): did not enhance platelet aggregation; activation of human platelet aggregation with thrombin at a subliminal dose (human platelets; thrombin 0.3 U/ml): inactive |
| CGTHSSRIC (disulfide 1-9 (inferred)) [4.4] | capable of specifically binding | not capable of binding |  |
| CIPTRHMAC (binding protein) [4.101, modified form of peptide 4.10] | None of these peptides proved to be capable of binding |  |  |
| CIPTRHMVC (binding protein) [4.103, modified form of peptide 4.10] | None of these peptides proved to be capable of binding |  |  |
| CLPSRHMAC (binding protein) [4.102, modified form of peptide 4.10] | None of these peptides proved to be capable of binding |  |  |
| CLPTRWMAC (binding protein) [4.104, modified form of peptide 4.10] | None of these peptides proved to be capable of binding |  |  |
| CPSGHTKAC (disulfide 1-9 (inferred)) [4.2=4.3] | capable of specifically binding | not capable of binding |  |

The next lines start with results.

| binding to J558L CD154+ cells [1] | Compound | binding to control J558 cells [2] | also measured |
| --- | --- | --- | --- |
| capable of specifically binding | CKAASANIC (disulfide 1-9 (inferred)) [4.8] | not capable of binding |  |
| capable of specifically binding | CLGTQNKEC (disulfide 1-9 (inferred)) [peptide 4.6] | not capable of binding | competition with anti-human CD154 fluorescein-conjugated antibody specific for the active site of CD154 [3]: do not specifically bind to the active site; expression of CD80 compared to basal levels [4, 5]: 117%; expression of CD86 compared to basal levels [4, 5]: 122%; effect on rhsCD154-induced formation of vessel-like cell cords on Matrigel (HUVEC): not capable of significantly reducing the stimulation of endothelial CD40 |
| capable of specifically binding | CLSAVHNMC (disulfide 1-9 (inferred)) [peptide 4.11] | not capable of binding | competition with anti-human CD154 fluorescein-conjugated antibody specific for the active site of CD154 [3]: do not specifically bind to the active site; inhibition of rhsCD154-induced B cell activation (CD80 and CD86 expression) ([4]; 250 μM): not stably reproducible; effect on rhsCD154-induced formation of vessel-like cell cords on Matrigel (HUVEC): not capable of significantly reducing the stimulation of endothelial CD40 |
| capable of specifically binding | CTPGKPHSC (disulfide 1-9 (inferred)) [4.7=4.12] | not capable of binding |  |
